# Experimental data as given in ChEMBL document CHEMBL1862790, “Optimisation of fenarimol series for the treatment of Chagas disease”.
# Legend:
# Trypanosoma cruzi [1] = test: microbe, parasite or virus in culture; format: functional, organism-based, Tulahuen LacZ, Clone C4
# [2] = DNDI: Cytotoxicity against L-6 rat myoblasts from skeletal muscle cells; details: L6 rat skeletal muscle myoblast cells
# Trypanosoma cruzi [3] = test: microbe, parasite or virus in culture; format: functional, Tulahuen LacZ, Clone C4
# [4] = Trypanosoma cruzi, Tulahuen LacZ, Clone C4
Structure (SMILES),IC50 (Trypanosoma cruzi [1]; [4]),IC90 (Trypanosoma cruzi [3]; [4]),IC50 (Trypanosoma cruzi [1]),IC90 (Trypanosoma cruzi [3]),IC50 ([2]; IC50),IC50 [2]
O=C(NC1CCN(C(c2cncnc2)c2ccc(Cl)cc2F)CC1)C1CC1 (centres undefined),150 nM,480 nM,,,> 100000 nM,
CON=C(C)c1cccnc1,> 10000 nM,> 10000 nM,,,,> 100000 nM
Cc1cc(C(=O)NC2CCN(C(c3cncnc3)c3ccc(Cl)cc3F)CC2)[nH]n1 (centres undefined),172 nM,756 nM,,,> 100000 nM,
CCCC=C(c1ccc(Cl)cc1)c1cccnc1,75 nM,380 nM,,,79400 nM,
CCn1cc(C(NC2CCN(c3ccc(OC(F)(F)F)cc3)CC2)c2cccnc2)cn1 (centres undefined),103 nM,298 nM,,,73900 nM,
CCN1CCN(C(c2ccc(Cl)cc2)c2cccnc2)CC1 (centres undefined),> 1000 nM,> 1000 nM,,,> 100000 nM,
O=C(C1CC1)N1CCN(C(c2ccc(Cl)cc2)c2cncnc2)CC1 (centres undefined),500 nM,920 nM,,,> 100000 nM,
Cc1cc(C(=O)NC2CCN(C(c3ccc(C#N)cc3)c3cccnc3)CC2)[nH]n1 (centres undefined),236 nM,670 nM,,,> 100000 nM,
CS(=O)(=O)N1CCN(C(c2ccc(C(F)(F)F)cc2)c2cccnc2)CC1 (centres undefined),76.5 nM,572 nM,,,> 100000 nM,
CON=C(Cc1ccccc1)c1ccc(Cl)cc1,> 10000 nM,> 10000 nM,,,70200 nM,
CCN(CC)C(=O)NC1CCN(C(c2cncnc2)c2ccc(Cl)cc2F)CC1 (centres undefined),50 nM,250 nM,,,58100 nM,
CC(C)Oc1ncc(C(O)(c2ccc(Cl)cc2)c2cccnc2)cn1 (centres undefined),60 nM,230 nM,,,> 100000 nM,
O=C(OCc1ccccc1)N1CCN(C(c2cccnc2)c2ccc(Cl)cc2F)CC1 (centres undefined),28 nM,88 nM,,,59700 nM,
OC(c1cncnc1)(c1ccccn1)c1ccccc1Cl (centres undefined),7330 nM,15500 nM,,,> 100000 nM,
CC(C)(C)NC(=O)NC1CCN(C(c2ccc(Cl)cc2)c2cccnc2)CC1 (centres undefined),63 nM,190 nM,,,> 100000 nM,
CC(C)S(=O)(=O)N1CCN(C(c2ccc(Cl)cc2)c2cccnc2)CC1 (centres undefined),28 nM,88 nM,,,> 100000 nM,
O=C(NC1CCN(C(c2cncnc2)c2ccc(Cl)cc2F)CC1)c1cccc(F)c1F (centres undefined),29.5 nM,241 nM,,,75800 nM,
CCN(CC)C(=O)NC1CCN(C(c2ccc(Cl)cc2)c2cncnc2)CC1 (centres undefined),110 nM,860 nM,,,> 100000 nM,
Cc1ncsc1C(=O)NC1CCN(C(c2ccc(C#N)cc2)c2cccnc2)CC1 (centres undefined),71 nM,202 nM,,,> 100000 nM,
N#Cc1ccc(C(c2cccnc2)N2CCC(NC(=O)c3cc(F)ccc3F)CC2)cc1 (centres undefined),15.5 nM,49 nM,,,> 100000 nM,
CC(C)c1ccc(C(O)(c2ccc(C(F)(F)F)cc2)c2cncnc2)cc1 (centres undefined),4.5 nM,20 nM,,,56500 nM,
Fc1cnc(N2CCC(NC(c3ccc(Cl)cc3)c3cccnc3)CC2)nc1 (centres undefined),34 nM,88 nM,,,58200 nM,

Structure (SMILES),IC50 (Trypanosoma cruzi [1]; [4]),IC90 (Trypanosoma cruzi [3]; [4]),IC50 (Trypanosoma cruzi [1]),IC90 (Trypanosoma cruzi [3]),IC50 ([2]; IC50),IC50 [2]
Cc1ncsc1C(=O)NC1CCN(C(c2cncnc2)c2ccc(Cl)cc2F)CC1 (centres undefined),78.5 nM,436 nM,,,> 100000 nM,
O=S(=O)(Cc1ccccc1)NC1CCN(C(c2cnccn2)c2ccc(F)cc2F)CC1 (centres undefined),720 nM,> 1000 nM,,,> 100000 nM,
COc1ccc(C(O)(c2cncnc2)C2CC2)cc1 (centres undefined),20900 nM,62500 nM,,,,> 100000 nM
CCCCC(O)(c1ccc(Cl)cc1)c1cccnc1 (centres undefined),29 nM,103 nM,,,60900 nM,
CS(=O)(=O)N1CCN(C(c2ccc(Cl)cc2)c2cncnc2)CC1 (centres undefined),880 nM,7540 nM,,,> 100000 nM,
CC(C)CC(Nc1cccnc1)c1ccc(Cl)cc1 (centres undefined),640 nM,> 1000 nM,,,56200 nM,
O=S(=O)(c1ccc(Cl)cc1)N1CCN(C(c2ccc(Cl)cc2)c2cncnc2)CC1 (centres undefined),130 nM,460 nM,,,29000 nM,
OC(c1ccc(Cl)cc1)(c1cccnc1)c1cncs1 (centres undefined),140 nM,500 nM,,,> 100000 nM,
O=C(NC1CCN(C(c2cnccn2)c2ccc(F)cc2F)CC1)c1ccccc1 (centres undefined),550 nM,930 nM,,,> 100000 nM,
CC(C)c1ccc(S(=O)(=O)N2CCN(C(c3cncnc3)c3ccc(Cl)cc3F)CC2)cc1 (centres undefined),18 nM,36 nM,,,> 100000 nM,
Cc1cc(C(=O)NC2CCN(C(c3ccc(C#N)cc3)c3cccnc3)CC2)n(C)n1 (centres undefined),58 nM,130 nM,46.5 nM,97.5 nM,> 100000 nM,
O=C(NC1CCN(C(c2cncnc2)c2ccc(Cl)cc2F)CC1)c1ccccc1 (centres undefined),22 nM,110 nM,,,82400 nM,
O=C(NC1CCN(C(c2ccc(Cl)cc2)c2cncnc2)CC1)C1CC1 (centres undefined),480 nM,> 1000 nM,,,> 100000 nM,
O=C(NCCN1CCOCC1)c1cccc(C(O)(c2ccc(Cl)cc2)c2cccnc2)c1 (centres undefined),500 nM,950 nM,,,> 100000 nM,
CC(C)OCCCNC(=O)c1cccc(C(O)(c2ccc(Cl)cc2)c2cccnc2)c1 (centres undefined),97.5 nM,232 nM,,,74800 nM,
O=C(NCC1CCCCC1)c1cccc(C(O)(c2ccc(Cl)cc2)c2cccnc2)c1 (centres undefined),100 nM,280 nM,,,> 100000 nM,
CN(C)C(=O)N1CCN(C(c2cncnc2)c2ccc(Cl)cc2F)CC1 (centres undefined),480 nM,940 nM,,,> 100000 nM,
CC(C)N(C(=O)c1cccc(C(O)(c2ccc(Cl)cc2)c2cccnc2)c1)C(C)C (centres undefined),14 nM,56 nM,,,54700 nM,
O=S(=O)(NC1CCN(C(c2cnccn2)c2ccc(F)cc2F)CC1)c1ccccc1 (centres undefined),470 nM,880 nM,,,67700 nM,
CC(C)Oc1ccc(C(NC(=O)c2ccc(Cl)cc2)c2cccnc2)cc1 (centres undefined),150 nM,330 nM,,,84900 nM,
Fc1cc(Cl)ccc1C(NC1CCN(c2nccs2)CC1)c1cccnc1 (centres undefined),9 nM,65.5 nM,,,56200 nM,

# Further lines, with some results ahead:
IC50 (Trypanosoma cruzi [1]; [4]),IC90 (Trypanosoma cruzi [3]; [4]),IC50 (Trypanosoma cruzi [1]),IC90 (Trypanosoma cruzi [3]),Structure (SMILES),IC50 ([2]; IC50),IC50 [2]
590 nM,968 nM,,,Cc1nc(C(=O)N2CCC(NC(c3ccc(C(F)(F)F)cc3)c3cccnc3)CC2)co1 (centres undefined),> 100000 nM,
31 nM,120 nM,,,N#Cc1ccnc(N2CCC(NC(c3ccc(C(F)(F)F)cc3)c3cccnc3)CC2)n1 (centres undefined),49700 nM,
7 nM,19.5 nM,,,CC(C)(C)OC(=O)N1CCC(NC(c2ccc(C(F)(F)F)cc2)c2cncs2)CC1 (centres undefined),61300 nM,
31 nM,94 nM,,,CC(C)(C)CC(=O)N1CCC(NC(c2ccc(Cl)cc2)c2cccnc2)CC1 (centres undefined),> 100000 nM,
6 nM,11 nM,,,FC(F)(F)c1ccc(N2CCC(NC(c3cccnc3)c3cnn(Cc4ccccc4)c3)CC2)cc1 (centres undefined),51600 nM,
363 nM,779 nM,,,Cc1cc(C(=O)N2CCC(NC(c3ccc(C(F)(F)F)cc3)c3cccnc3)CC2)on1 (centres undefined),> 100000 nM,
190 nM,400 nM,,,O=S(=O)(Cc1ccccc1)N1CCC(NC(c2cnccn2)c2ccc(F)cc2F)CC1 (centres undefined),> 100000 nM,
26.5 nM,150 nM,,,Cc1n[nH]c(C)c1C(=O)N1CCC(NC(c2ccc(C(F)(F)F)cc2)c2cccnc2)CC1 (centres undefined),> 100000 nM,
330 nM,910 nM,,,O=S(=O)(c1ccc(Cl)cc1)N1CCC(NC(c2ccc(C(F)(F)F)cc2)c2cnccn2)CC1 (centres undefined),> 100000 nM,
6 nM,10 nM,,,O=C(NC1CCN(C(c2ccc(C(F)(F)F)cc2)c2cccnc2)CC1)c1ccccc1C(F)(F)F (centres undefined),> 100000 nM,
99.5 nM,280 nM,,,Cn1cc(C(=O)N2CCC(NC(c3ccc(C(F)(F)F)cc3)c3cccnc3)CC2)c(C(F)(F)F)n1 (centres undefined),77100 nM,
36 nM,100 nM,,,CCN(CC)C(=O)N1CCC(NC(c2ccc(Cl)cc2)c2cccnc2)CC1 (centres undefined),> 100000 nM,
48 nM,150 nM,,,Cc1cc(C(=O)NC2CCN(C(c3ccc(C(F)(F)F)cc3)c3cccnc3)CC2)[nH]n1 (centres undefined),73100 nM,
70.5 nM,206 nM,,,CCn1nc(C)cc1C(=O)N1CCC(NC(c2ccc(C(F)(F)F)cc2)c2cccnc2)CC1 (centres undefined),> 100000 nM,
326 nM,808 nM,,,Cc1nc(C(=O)N2CCC(NC(c3ccc(C(F)(F)F)cc3)c3cccnc3)CC2)cs1 (centres undefined),> 100000 nM,
28 nM,67 nM,,,CC(C)(C)OC(=O)N1CCC(CN(c2ccc(C(F)(F)F)cc2)c2cccnc2)CC1,51700 nM,
230 nM,600 nM,,,CCC(C(C)O)N1CCC(NC(c2ccc(Cl)cc2)c2cccnc2)CC1 (centres undefined),> 100000 nM,
530 nM,900 nM,,,O=S(=O)(c1ccc(Cl)cc1)N1CCC(NC(c2cnccn2)c2ccc(F)cc2F)CC1 (centres undefined),77900 nM,
264 nM,773 nM,,,Cc1cc(C(=O)N2CCC(NC(c3ccc(C(F)(F)F)cc3)c3cccnc3)CC2)n(C)n1 (centres undefined),> 100000 nM,
126 nM,584 nM,,,O=C(C1CC1)N1CCC(NC(c2cccnc2)c2ccc(Cl)cc2F)CC1 (centres undefined),> 100000 nM,
> 1000 nM,> 1000 nM,,,O=S(=O)(NC(c1ccc(C(F)(F)F)cc1)c1cnccn1)C1CCCCC1 (centres undefined),85000 nM,
3650 nM,7670 nM,,,O=S(=O)(NC(c1ccc(C(F)(F)F)cc1)c1cnccn1)c1ccccc1 (centres undefined),> 100000 nM,
> 1000 nM,> 1000 nM,,,CCC(=O)N1CCC(NC(c2ccc(C(F)(F)F)cc2)c2cnccn2)CC1 (centres undefined),> 100000 nM,
310 nM,780 nM,,,O=S(=O)(Cc1ccccc1)NC1CCN(C(c2ccc(C(F)(F)F)cc2)c2cnccn2)CC1 (centres undefined),54900 nM,
290 nM,830 nM,,,O=C(c1ccc(C(F)(F)F)cc1)N1CCC(NC(c2cnccn2)c2ccc(F)cc2F)CC1 (centres undefined),> 100000 nM,
860 nM,> 1000 nM,,,O=C(NC(c1ccc(C(F)(F)F)cc1)c1cnccn1)c1ccc(Cl)cc1 (centres undefined),61800 nM,
